Holding throughout (format): binding
Assay [1] addresses T1, HsAFP1 (Heuchera sanguinea, UniProt P0C8Y5, H32A/R52A).
T1 construct: mature plant defensin, recombinantly produced in Pichia pastoris and purified
The assay is described as follows: rELISA, immobilised lipid. The following applies: 12.5 uM peptide; PBS-based blocking buffer pH 7.4; 37 C.

Assay [2] deals with T2, HsAFP1 (Heuchera sanguinea, UniProt P0C8Y5).
T2 construct: mature plant defensin, recombinantly produced in Pichia pastoris and purified
Put plainly: rELISA, immobilised lipid. The following applies: 12.5 uM HsAFP1; pH 7.4; 37 C.

The target of assay [3] is T2, HsAFP1. Put plainly: DSC of lipid vesicles (lipid phase transition). The following applies: PC/PG/PA 75/15/10 vesicles, 0.5 mM; 40 uM HsAFP1; HEPES pH 7, low salt.

T2 sequence (P0C8Y5 whole entry): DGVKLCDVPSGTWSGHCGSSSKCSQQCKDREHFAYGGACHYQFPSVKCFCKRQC
T1 sequence (P0C8Y5 whole entry H32A/R52A): as the sequence (P0C8Y5 whole entry) above, with H32A, R52A counted along it

With phosphatidic acid, on HsAFP1 [1], the “% reduction of binding vs native HsAFP1” value is reported as 77%.

Consider methyl-PA, for which the “% reduction of binding vs PA” value on HsAFP1 [2] is recorded as more than 75%.

With `CCCCCCCCCCCCCC(=O)OC[C@H](COP(=O)(O)O)OC(=O)CCCCCCCCCCCCC` [dimyristoylphosphatidic acid], the “DSC of lipid vesicles (lipid phase transition)” value at HsAFP1 [3] is recorded as “HsAFP1 specifically interacted with vesicles containing PA”.

Source of the values: paper PMC5702387, “The Antifungal Plant Defensin HsAFP1 Is a Phosphatidic Acid-Interacting Peptide Inducing Membrane Permeabilization” (Frontiers in Microbiology, 2017).
